Results reported in patent US7812183B2, “Benzopyran derivatives as potassium channel openers” (Janssen Pharmaceutica NV, priority 2005, dated 2010).

target: T1, KATP channels (Homo sapiens, UniProt O60706+Q14654); experiment: Potassium Channel Assay (FLIPR membrane potential, TE671 cells); type: cell-based; settings: TE671 human medulloblastoma cells, Membrane Potential Assay Dye, room temperature, hyperpolarization from KATP channel opening
T1 construct: TE671 human medulloblastoma cells were obtained from ATCC; host or cells: TE671 human medulloblastoma cells
T1 sequence (O60706 1-1549 isoform O60706-2): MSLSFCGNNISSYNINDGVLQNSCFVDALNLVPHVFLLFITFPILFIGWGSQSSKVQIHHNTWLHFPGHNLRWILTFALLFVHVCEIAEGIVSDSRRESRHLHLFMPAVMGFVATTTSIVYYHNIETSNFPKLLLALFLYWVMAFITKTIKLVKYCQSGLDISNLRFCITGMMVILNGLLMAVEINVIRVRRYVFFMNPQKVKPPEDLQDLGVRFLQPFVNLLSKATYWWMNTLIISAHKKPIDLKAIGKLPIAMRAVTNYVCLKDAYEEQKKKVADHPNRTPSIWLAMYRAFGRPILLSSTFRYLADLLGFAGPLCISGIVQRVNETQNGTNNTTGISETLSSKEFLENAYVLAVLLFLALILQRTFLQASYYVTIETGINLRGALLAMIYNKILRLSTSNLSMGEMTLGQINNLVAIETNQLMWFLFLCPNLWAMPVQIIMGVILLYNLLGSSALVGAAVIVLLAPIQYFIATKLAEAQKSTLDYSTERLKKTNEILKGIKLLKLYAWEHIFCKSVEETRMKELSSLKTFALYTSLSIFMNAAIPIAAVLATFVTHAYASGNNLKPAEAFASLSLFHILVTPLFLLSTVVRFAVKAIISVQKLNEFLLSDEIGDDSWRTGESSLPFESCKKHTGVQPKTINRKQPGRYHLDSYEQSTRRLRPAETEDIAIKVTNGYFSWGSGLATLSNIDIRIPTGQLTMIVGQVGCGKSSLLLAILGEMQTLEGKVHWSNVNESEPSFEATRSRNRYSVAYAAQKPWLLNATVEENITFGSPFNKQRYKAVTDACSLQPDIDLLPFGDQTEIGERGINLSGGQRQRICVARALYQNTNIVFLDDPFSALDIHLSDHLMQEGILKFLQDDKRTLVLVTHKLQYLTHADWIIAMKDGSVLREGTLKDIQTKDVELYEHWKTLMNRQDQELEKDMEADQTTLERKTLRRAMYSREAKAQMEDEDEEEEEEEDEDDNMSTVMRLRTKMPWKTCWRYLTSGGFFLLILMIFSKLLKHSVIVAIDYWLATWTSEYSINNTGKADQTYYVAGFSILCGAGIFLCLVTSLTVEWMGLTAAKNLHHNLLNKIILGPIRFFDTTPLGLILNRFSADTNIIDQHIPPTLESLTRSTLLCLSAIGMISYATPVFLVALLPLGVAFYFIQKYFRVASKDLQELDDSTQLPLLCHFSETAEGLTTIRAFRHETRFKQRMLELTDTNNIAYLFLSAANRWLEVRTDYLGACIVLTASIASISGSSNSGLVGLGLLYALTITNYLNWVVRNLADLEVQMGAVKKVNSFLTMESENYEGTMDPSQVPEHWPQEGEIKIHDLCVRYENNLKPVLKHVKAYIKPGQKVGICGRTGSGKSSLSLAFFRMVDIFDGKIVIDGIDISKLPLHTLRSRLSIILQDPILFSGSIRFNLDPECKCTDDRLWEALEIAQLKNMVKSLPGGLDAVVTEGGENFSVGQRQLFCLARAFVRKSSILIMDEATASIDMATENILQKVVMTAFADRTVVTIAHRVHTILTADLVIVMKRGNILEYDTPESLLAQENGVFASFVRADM
T1 sequence (Q14654 whole entry): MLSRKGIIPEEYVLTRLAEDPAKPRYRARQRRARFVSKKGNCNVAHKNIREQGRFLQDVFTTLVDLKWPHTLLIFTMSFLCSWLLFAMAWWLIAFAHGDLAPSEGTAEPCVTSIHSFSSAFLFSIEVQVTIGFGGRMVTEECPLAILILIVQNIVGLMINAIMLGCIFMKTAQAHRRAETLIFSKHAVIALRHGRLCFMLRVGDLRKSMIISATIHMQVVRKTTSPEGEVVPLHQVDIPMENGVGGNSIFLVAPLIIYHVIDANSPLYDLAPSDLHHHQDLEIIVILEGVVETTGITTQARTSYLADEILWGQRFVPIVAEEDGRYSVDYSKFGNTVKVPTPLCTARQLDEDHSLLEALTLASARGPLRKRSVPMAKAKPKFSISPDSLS
Description: TE671 human medulloblastoma cells were obtained from ATCC and grown in Dulbecco's modified Eagle's medium (DMEM) supplemented with 10% fetal bovine serum, 100 U/ml penicillin and 100 U/ml streptomycine.
The day before testing, the cells were plated in black 96-well plates at 50K/well. On the day of testing, the growth media was removed, then 100 μl of FLIPR buffer (20 mM HEPES, 120 mM NaCl, 2 mM KCl, 2 mM CaCl2, 1 mM MgCl2, 5 mM Glucose) and 100 μl of Membrane Potential Assay Dye (Molecular Devices) dissolved in FLIPR buffer were added to each well. The cells were incubated at room temperature for 15 to 30 min.
The effect of test compounds on KATP channels were evaluated on a fluorometric imaging plate reader (FLIPR, Molecular Devices) at room temperature. After a baseline period, 50 μl of 5× stock solution of test compound prepared in FLIPR buffer was added and fluorescent change was monitored for 3 minutes. After this reading, glyburide, a KATP channel blocker, was added to a final concentration of 5 μM to check the specificity of the test compound as a KATP channel openers. Hyperpolarization resulting from KATP channel opening was observed as a decrease in fluorescent intensity.
Representative compounds of the present invention were tested according to the procedure described above, with results as listed in Table 7, below.

Question: For `CC1(C)Oc2ccc(C#N)cc2[C@@H](Nc2nc3cc(Cl)ccc3s2)[C@@H]1O` (racemic) [Compound 1, 4-(5-Chloro-benzothiazol-2-ylamino)-3-hydroxy-2,2-dimethyl-chroman-6-carbonitrile], which EC50 is on record?
Answer: The EC50 was 14.6 µM.

Question: `CC1(C)Oc2ccc(C#N)cc2[C@@H](Nc2nc3cc(Cl)ccc3o2)[C@@H]1O` (racemic) [Compound 2, 4-(5-Chloro-benzooxazol-2-ylamino)-3-hydroxy-2,2-dimethyl-chroman-6-carbonitrile] was tested. Which EC50 did it give?
Answer: Its EC50 is 16.5 µM.

Question: How did the EC50 turn out when `CC1(C)Oc2ccc(Cl)cc2C(OC(=O)c2cccc(Cl)c2)C1O` (racemic) [Compound 3] was run?
Answer: The EC50 was 26.3 µM.

Question: Which EC50 does the source give for `CCOc1ccc2sc(N[C@@H]3c4cc(C#N)ccc4OC(C)(C)[C@H]3O)nc2c1` (racemic) [Compound 4, 4-(5-Ethoxy-benzothiazol-2-ylamino)-3-hydroxy-2,2-dimethyl-chroman-6-carbonitrile] here?
Answer: The EC50 was 2.6 µM.

Question: Which EC50 does the source give for `CC1(C)Oc2ccc(C#N)cc2[C@@H](Nc2nc3cc(F)ccc3s2)[C@@H]1O` (racemic) [Compound 5, 4-(5-Fluoro-benzothiazol-2-ylamino)-3-hydroxy-2,2-dimethyl-chroman-6-carbonitrile] here?
Answer: The EC50 was 8.44 µM.

Question: With `CC1(C)Oc2ccc(C#N)cc2[C@@H](Nc2nc3cc([N+](=O)[O-])ccc3s2)[C@@H]1O` (racemic) [Compound 6, 3-Hydroxy-2,2-dimethyl-4-(5-nitro-benzothiazol-2-ylamino)-chroman-6-carbonitrile] as the compound, how does the EC50 read?
Answer: Its EC50 is 3.09 µM.

Question: Which EC50 does the source give for `CC1(C)Oc2ccc(C#N)cc2[C@@H](Nc2nc(=O)c3cc(Cl)ccc3[nH]2)[C@@H]1O` (racemic) [Compound 7, 4-(6-Chloro-4-oxo-1,4-dihydro-quinazolin-2-ylamino)-3-hydroxy-2,2-dimethyl-chroman-6-carbonitrile] here?
Answer: Its EC50 is 2.29 µM.

Question: Which EC50 does the source give for `CC1(C)Oc2ccc(C#N)cc2[C@@H](Oc2cc(N)nc3ccccc23)[C@@H]1O` (racemic) [Compound 8, 4-(2-Amino-quinolin-4-yloxy)-3-hydroxy-2,2-dimethyl-chroman-6-carbonitrile] here?
Answer: Its EC50 is 3.71 µM.

Question: Which EC50 does the source give for `Cc1cn([C@@H]2c3cc(C#N)ccc3OC(C)(C)[C@H]2O)c(-c2ccccc2)n1` (racemic) [Compound 9, 3-Hydroxy-2,2-dimethyl-4-(4-methyl-2-phenyl-imidazol-1-yl)-chroman-6-carbonitrile] here?
Answer: Its EC50 is > 30 µM.

Question: For `CC1(C)Oc2ccc(C#N)cc2[C@@H](n2ccnc2-c2ccc(Cl)cc2)[C@@H]1O` (racemic) [Compound 12, 4-[2-(4-Chloro-phenyl)-imidazol-1-yl]-3-hydroxy-2,2-dimethyl-chroman-6-carbonitrile], which EC50 is on record?
Answer: The EC50 was 5.7 µM.

Question: `CC1(C)Oc2ccc(Cl)cc2[C@@H](N2C(=O)CCN2c2ccccc2)[C@@H]1O` (racemic) [Compound 13, 2-(6-Chloro-3-hydroxy-2,2-dimethyl-chroman-4-yl)-1-phenyl-pyrazolidin-3-one] was tested. Which EC50 did it give?
Answer: The EC50 was 3.16 µM.

Question: For `CC1(C)Oc2ccc(C#N)cc2[C@@H](n2nc(-c3ccc(Cl)cc3)ccc2=O)[C@@H]1O` (racemic) [Compound 14, 4-[3-(4-Chloro-phenyl)-6-oxo-6H-pyridazin-1-yl]-3-hydroxy-2,2-dimethyl-chroman-6-carbonitrile], which EC50 is on record?
Answer: The EC50 was > 30 µM.

Question: How did the EC50 turn out when `CC1(C)Oc2ccc(C#N)cc2[C@@H](n2c(=O)ccn2-c2ccc(Cl)cc2)[C@@H]1O` (racemic) [Compound 15, 4-[2-(4-Chloro-phenyl)-5-oxo-2,5-dihydro-pyrazol-1-yl]-3-hydroxy-2,2-dimethyl-chroman-6-carbonitrile] was run?
Answer: The EC50 was 5.93 µM.

Question: With `CC1(C)Oc2ccc(C#N)cc2[C@@H](Sc2nc3cc(OC(F)F)ccc3[nH]2)[C@@H]1O` (racemic) [Compound 16, 4-(5-Difluoromethoxy-1H-benzoimidazol-2-ylsulfanyl)-3-hydroxy-2,2-dimethyl-chroman-6-carbonitrile] as the compound, how does the EC50 read?
Answer: Its EC50 is > 30 µM.

Question: Which EC50 does the source give for `CC1(C)Oc2ccc(C#N)cc2[C@@H](S(=O)(=O)c2nc3cc(Cl)ccc3o2)[C@@H]1O` (racemic) [Compound 17, 4-(5-Chloro-benzooxazole-2-sulfonyl)-3-hydroxy-2,2-dimethyl-chroman-6-carbonitrile] here?
Answer: Its EC50 is 6.77 µM.

Question: `CC1(C)Oc2ccc(C#N)cc2[C@@H](n2cncc2-c2ccc(Cl)cc2)[C@@H]1O` (racemic) [Compound 18, 4-[5-(4-Chloro-phenyl)-imidazol-1-yl]-3-hydroxy-2,2-dimethyl-chroman-6-carbonitrile] was tested. Which EC50 did it give?
Answer: Its EC50 is 7.45 µM.

Question: `CC1(C)Oc2ccc(C#N)cc2[C@@H](S(=O)(=O)c2noc3cc(Cl)ccc23)[C@@H]1O` (racemic) [Compound 19, 4-(6-Chloro-benzo[d]isoxazole-3-sulfonyl)-3-hydroxy-2,2-dimethyl-chroman-6-carbonitrile] was tested. Which EC50 did it give?
Answer: Its EC50 is 15.4 µM.

Question: With `CC1(C)Oc2ccc(C#N)cc2[C@@H](Oc2nsc3ccccc23)[C@@H]1O` (racemic) [Compound 20, 4-(Benzo[d]isothiazol-3-yloxy)-3-hydroxy-2,2-dimethyl-chroman-6-carbonitrile] as the compound, how does the EC50 read?
Answer: The EC50 was 16.1 µM.

Question: For `CC1(C)Oc2ccc(C#N)cc2[C@@H](n2ccnc2-c2ccccc2)[C@@H]1O` (racemic) [Compound 47, 3-Hydroxy-2,2-dimethyl-4-(2-phenyl-imidazol-1-yl)-chroman-6-carbonitrile], which EC50 is on record?
Answer: The EC50 was > 30 µM.

Question: For `CC1(C)Oc2ccc(C#N)cc2[C@@H](N2CCN(c3ccc(F)cc3)CC2)[C@@H]1O` (racemic) [Compound 48, 4-[4-(4-Fluoro-phenyl)-piperazin-1-yl]-3-hydroxy-2,2-dimethyl-chroman-6-carbonitrile], which EC50 is on record?
Answer: The EC50 was 6.34 µM.

Question: Which EC50 does the source give for `CC1(C)Oc2ccc(Cl)cc2[C@@H](n2ccnc2-c2ccccc2)[C@@H]1O` (racemic) [Compound 49, 6-Chloro-2,2-dimethyl-4-(2-phenyl-imidazol-1-yl)-chroman-3-ol] here?
Answer: Its EC50 is > 30 µM.

Question: For `CC1(C)Oc2ccc(C#N)cc2[C@@H](N2CCN(c3ccc(Cl)cc3)CC2)[C@@H]1O` (racemic) [Compound 50, 4-[4-(4-Chloro-phenyl)-piperazin-1-yl]-3-hydroxy-2,2-dimethyl-chroman-6-carbonitrile], which EC50 is on record?
Answer: The EC50 was > 30 µM.

Question: Which EC50 does the source give for `CC1(C)Oc2ccc(C#N)cc2[C@@H](N2CCN(c3ccc([N+](=O)[O-])cc3)CC2)[C@@H]1O` (racemic) [Compound 51, 3-Hydroxy-2,2-dimethyl-4-[4-(4-nitro-phenyl)-piperazin-1-yl]-chroman-6-carbonitrile] here?
Answer: Its EC50 is > 30 µM.

Question: `CC1(C)Oc2ccc(C#N)cc2[C@@H](Oc2ccc(-c3ccccc3)nn2)[C@@H]1O` (racemic) [Compound 52, 3-Hydroxy-2,2-dimethyl-4-(6-phenyl-pyridazin-3-yloxy)-chroman-6-carbonitrile] was tested. Which EC50 did it give?
Answer: The EC50 was 3.9 µM.

Question: `CC1(C)Oc2ccc(C#N)cc2[C@@H](Oc2ccn(-c3ccc(Cl)cc3)n2)[C@@H]1O` (racemic) [Compound 55, 4-[1-(4-Chloro-phenyl)-1H-pyrazol-3-yloxy]-3-hydroxy-2,2-dimethyl-chroman-6-carbonitrile] was tested. Which EC50 did it give?
Answer: The EC50 was 8.82 µM.

Question: With `CC1(C)Oc2ccc(C#N)cc2[C@@H](Oc2ccc(-c3ccc(Cl)cc3)nn2)[C@@H]1O` (racemic) [Compound 56, 4-[6-(4-Chloro-phenyl)-pyridazin-3-yloxy]-3-hydroxy-2,2-dimethyl-chroman-6-carbonitrile] as the compound, how does the EC50 read?
Answer: Its EC50 is > 30 µM.

Question: `CC1(C)Oc2ccc(C#N)cc2[C@@H](Oc2ccn(-c3ccccc3)n2)[C@@H]1O` (racemic) [Compound 58, 3-Hydroxy-2,2-dimethyl-4-(1-phenyl-1H-pyrazol-3-yloxy)-chroman-6-carbonitrile] was tested. Which EC50 did it give?
Answer: The EC50 was 2.62 µM.

Question: With `CC1(C)Oc2ccc(Cl)cc2[C@@H](OC2=NN(c3ccccc3)CC2)[C@@H]1O` (racemic) [Compound 59, 6-Chloro-2,2-dimethyl-4-(1-phenyl-4,5-dihydro-1H-pyrazol-3-yloxy)-chroman-3-ol] as the compound, how does the EC50 read?
Answer: Its EC50 is 16.6 µM.

Question: For `CC1(C)Oc2ccc(Cl)cc2[C@@H](Oc2ccn(-c3ccccc3)n2)[C@@H]1O` (racemic) [Compound 60, 6-Chloro-2,2-dimethyl-4-(1-phenyl-1H-pyrazol-3-yloxy)-chroman-3-ol], which EC50 is on record?
Answer: The EC50 was > 30 µM.

Question: For `CC1(C)Oc2ccc(C#N)cc2[C@@H](n2c(=O)ccn2-c2ccccc2)[C@@H]1O` (racemic) [Compound 62, 3-Hydroxy-2,2-dimethyl-4-(5-oxo-2-phenyl-2,5-dihydro-pyrazol-1-yl)-chroman-6-carbonitrile], which EC50 is on record?
Answer: The EC50 was 13.5 µM.

Question: With `CCN(CC)S(=O)(=O)c1ccc2c(c1)[C@@H](Nc1noc3ccc(Cl)cc13)[C@H](O)C(C)(C)O2` (racemic) [Compound 80, 4R-(5-Chloro-benzo[d]isoxazol-3-ylamino)-3S-hydroxy-2,2-dimethyl-chroman-6-sulfonic acid diethylamide] as the compound, how does the EC50 read?
Answer: Its EC50 is > 30 µM.

Question: For `CC1(C)Oc2ccncc2[C@@H](n2ccnc2-c2ccccc2)[C@@H]1O` (racemic) [Compound 105, 2,2-Dimethyl-4-(2-phenyl-imidazol-1-yl)-3,4-dihydro-2H-pyrano[3,2-c]pyridin-3-ol], which EC50 is on record?
Answer: Its EC50 is > 30 µM.

Question: How did the EC50 turn out when `CC1(C)Oc2ccncc2[C@@H](Nc2nc3cc(Cl)ccc3s2)[C@@H]1O` (racemic) [Compound 106, 4-(5-Chloro-benzothiazol-2-ylamino)-2,2-dimethyl-3,4-dihydro-2H-pyrano[3,2-c]pyridin-3-ol] was run?
Answer: Its EC50 is 19.5 µM.

Question: `CC1(C)Oc2ccncc2[C@@H](Nc2nc3cc(Cl)ccc3o2)[C@@H]1O` (racemic) [Compound 107, 4-(5-Chloro-benzoxazol-2-ylamino)-2,2-dimethyl-3,4-dihydro-2H-pyrano[3,2-c]pyridin-3-ol] was tested. Which EC50 did it give?
Answer: Its EC50 is > 30 µM.
